Test results: article PMC7837508, “Interactions of the Diazabicyclooctane Serine β-Lactamase Inhibitor ETX1317 with Target Enzymes” (ACS Infectious Diseases, 2020)

Key:
P. aeruginosa AmpC = target: T1, P. aeruginosa AmpC (Pseudomonas aeruginosa, UniProt P24735); details: ambient temperature, pH 7.0, nitrocefin, ref 6 and 7; cited from earlier work
T1 construct: made in house

OXA-48 = target: T2, OXA-48 (Klebsiella pneumoniae, UniProt Q6XEC0); experiment: β-lactamase acylation exchange (intact protein mass spectrometry); assay type: binding; details: donor OXA-48, acceptor CTX-M-15, 19 h, ambient temperature, no added bicarbonate
T2 construct: made in house
Procedure: (§1) β-Lactamase acylation exchange experiments and intact protein mass spectrometry were performed as described previously.[10] OXA-48 was used as the acceptor enzyme in most cases because of the stability of the ETX1317–OXA-48 complex. When OXA-48 was the donor enzyme, CTX-M-15 was used as the acceptor. Each β-lactamase (5 μM) was incubated with or without 25 μM ETX1317 in a 60 μL volume of 50 mM HEPES (pH 7.0) buffer for 1 h at ambient temperature. The samples were diluted to 400 μL with ice-cold buffer and then concentrated to ∼40 μL with Microcon YM-10 centrifugal ultrafilters (Millipore-Sigma, Burlington, MA) at 14 000g for 45 min at 4 °C. The retentates were rediluted to 400 μL with ice-cold buffer and reconcentrated as before. This was repeated a further time, leaving no significant amount of unbound ETX1317. The sample volumes were restored to 60 μL with ice-cold buffer and the samples were divided into two equal aliquots of 30 μL. Buffer (6 μL) was added to one aliquot, and 6 μL of acceptor enzyme was added to the other. The final acceptor enzyme concentrations were 5 μM. Samples were incubated at ambient temperature for the times indicated and then stored at −80 °C until analysis. LC-MS analysis was performed on a Triple TOF5600+ (AB Sciex, Redwood City, CA) equipped with a DuoSpray Ion Source and a Shimadzu LC 20-AD HPLC system (Shimadzu Scientific Instruments, Marlborough, MA). A 2 μL portion of each sample was injected onto a Poroshell 300SB-C8 75 × 2.1 mm, 5 μm column (Agilent) at 30 °C with a gradient of acetonitrile (5–95%) in 0.1% formic acid for 3 min followed by a 1 min hold at 95% before returning to 5% acetonitrile at a flow rate of 0.4 mL/min. The mass spectrometer was operated in positive ion and intact protein mode with source temperature of 450 °C. LC-MS data were acquired in the TOF MS mode for m/z+ from 600 to 2000. Nebulizer gas (GS1), heater gas (GS2), and curtain gas were set at 60, 70, and 30 psi, respectively. Ion spray voltage was 5500 V. Declustering voltage was 100 V, and collision energy was 10 V. Peak masses for protein species were determined following spectrum deconvolution using PeakView version 2.2 software. Mass accuracy of intact proteins is ±1 Da.

KPC-2 = target: T3, KPC-2 (Klebsiella pneumoniae, UniProt Q9F663); experiment: as above; assay type: binding; details: donor KPC-2, acceptor OXA-48, 19 h, ambient temperature
T3 construct: made in house
Procedure: as §1

Enterobacter cloacae P99 = target: T4, Enterobacter cloacae P99 (Enterobacter cloacae, UniProt P05364); experiment: as above; assay type: binding; details: donor P99, acceptor OXA-48, ambient temperature
T4 construct: made in house
Procedure: as §1

SHV-5 = target: T5, SHV-5 (Klebsiella pneumoniae, UniProt P0A3M1); experiment: as above; assay type: binding; details: donor SHV-5, acceptor OXA-48, ambient temperature
T5 construct: made in house
Procedure: as §1

[1] = target: T6, Pseudomonas aeruginosa AmpC (Pseudomonas aeruginosa, UniProt P24735); experiment: as above; assay type: binding; details: acceptor OXA-48, 1, 2 and 17 h, ambient temperature
T6 construct: made in house
Procedure: as §1

CTX-M-15 = target: T7, CTX-M-15 (Escherichia coli, UniProt Q9EXV5); experiment: as above; assay type: binding; details: donor CTX-M-15, acceptor OXA-48, ambient temperature
T7 construct: made in house
Procedure: as §1

TEM-1 = target: T8, TEM-1 (Escherichia coli, UniProt P62593); experiment: as above; assay type: binding; details: donor TEM-1, acceptor OXA-48, ambient temperature
T8 construct: made in house
Procedure: as §1

T3 sequence (Q9F663 25-293, looked up, species assumed): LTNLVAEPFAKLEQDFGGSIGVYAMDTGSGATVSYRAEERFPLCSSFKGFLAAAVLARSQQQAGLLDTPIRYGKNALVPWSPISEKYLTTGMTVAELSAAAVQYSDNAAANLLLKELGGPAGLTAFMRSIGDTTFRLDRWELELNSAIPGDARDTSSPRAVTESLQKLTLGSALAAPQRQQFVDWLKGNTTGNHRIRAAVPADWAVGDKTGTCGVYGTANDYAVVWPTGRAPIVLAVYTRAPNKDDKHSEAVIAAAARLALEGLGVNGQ
T2 sequence (Q6XEC0 23-265, looked up, species assumed): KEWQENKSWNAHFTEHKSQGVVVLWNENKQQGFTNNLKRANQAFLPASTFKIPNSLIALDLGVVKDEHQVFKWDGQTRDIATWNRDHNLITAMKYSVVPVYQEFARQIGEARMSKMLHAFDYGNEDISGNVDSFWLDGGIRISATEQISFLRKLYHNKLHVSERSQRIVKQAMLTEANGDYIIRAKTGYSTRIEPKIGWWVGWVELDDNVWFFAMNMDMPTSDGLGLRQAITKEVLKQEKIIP
T5 sequence (P0A3M1 22-286, species assumed): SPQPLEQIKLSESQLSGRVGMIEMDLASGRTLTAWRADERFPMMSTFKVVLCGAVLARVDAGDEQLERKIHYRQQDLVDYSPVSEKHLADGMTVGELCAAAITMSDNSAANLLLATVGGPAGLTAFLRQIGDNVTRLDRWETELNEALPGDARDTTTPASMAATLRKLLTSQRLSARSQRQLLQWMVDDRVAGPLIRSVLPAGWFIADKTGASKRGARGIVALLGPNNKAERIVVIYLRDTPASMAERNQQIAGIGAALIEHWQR
T6 sequence (P24735 27-397): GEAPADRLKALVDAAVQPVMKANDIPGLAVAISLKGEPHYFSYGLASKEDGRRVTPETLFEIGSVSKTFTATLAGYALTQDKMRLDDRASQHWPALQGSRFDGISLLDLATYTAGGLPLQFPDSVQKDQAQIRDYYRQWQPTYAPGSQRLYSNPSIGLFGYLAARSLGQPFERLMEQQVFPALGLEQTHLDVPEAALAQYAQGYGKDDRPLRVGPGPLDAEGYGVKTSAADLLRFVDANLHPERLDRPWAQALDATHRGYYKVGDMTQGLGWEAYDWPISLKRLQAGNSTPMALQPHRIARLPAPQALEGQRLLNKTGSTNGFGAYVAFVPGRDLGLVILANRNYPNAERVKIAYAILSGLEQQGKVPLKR
T1 sequence (P24735 27-397): as above
T4 sequence (P05364 21-381): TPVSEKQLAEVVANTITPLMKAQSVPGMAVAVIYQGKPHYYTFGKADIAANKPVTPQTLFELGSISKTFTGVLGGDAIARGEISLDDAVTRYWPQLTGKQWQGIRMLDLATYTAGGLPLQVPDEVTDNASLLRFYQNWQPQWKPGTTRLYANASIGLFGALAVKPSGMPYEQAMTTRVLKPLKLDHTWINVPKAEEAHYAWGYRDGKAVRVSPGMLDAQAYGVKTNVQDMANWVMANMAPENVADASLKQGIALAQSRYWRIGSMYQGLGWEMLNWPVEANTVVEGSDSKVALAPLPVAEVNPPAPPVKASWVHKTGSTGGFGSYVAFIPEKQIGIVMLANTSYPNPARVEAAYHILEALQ
T7 sequence (Q9EXV5 29-291, species assumed): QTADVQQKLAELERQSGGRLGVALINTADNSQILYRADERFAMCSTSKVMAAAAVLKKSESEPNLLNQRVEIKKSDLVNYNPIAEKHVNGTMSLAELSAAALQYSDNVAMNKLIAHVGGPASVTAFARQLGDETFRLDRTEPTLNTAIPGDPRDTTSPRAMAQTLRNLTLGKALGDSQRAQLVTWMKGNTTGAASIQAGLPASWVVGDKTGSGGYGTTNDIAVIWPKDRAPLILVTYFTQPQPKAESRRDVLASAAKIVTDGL
T8 sequence (P62593 24-286 limits assumed): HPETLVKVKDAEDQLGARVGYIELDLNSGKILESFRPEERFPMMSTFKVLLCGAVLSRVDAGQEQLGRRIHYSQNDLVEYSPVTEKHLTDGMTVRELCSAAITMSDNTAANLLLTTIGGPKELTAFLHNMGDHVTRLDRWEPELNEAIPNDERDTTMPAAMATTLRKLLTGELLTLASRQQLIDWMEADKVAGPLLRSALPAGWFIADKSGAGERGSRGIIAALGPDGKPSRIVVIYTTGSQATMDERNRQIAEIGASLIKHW

CC1=C[C@@H](C(N)=O)N2C[C@@H]1N(O[C@H](F)C(=O)O)C2=O [ETX1317]
kinact/Ki (P. aeruginosa AmpC): 1.20 (±0.04) × 10^4 M^–1 s^–1
acylation exchange (recyclization and dissociation of intact inhibitor) from donor to acceptor enzyme (OXA-48): lack of acylation exchange
acylation exchange (recyclization and dissociation of intact inhibitor) from donor to acceptor enzyme (KPC-2): observed
acylation exchange (recyclization and dissociation of intact inhibitor) from donor to acceptor enzyme (Enterobacter cloacae P99): observed
acylation exchange (recyclization and dissociation of intact inhibitor) from donor to acceptor enzyme (SHV-5): observed
acylation exchange (recyclization and dissociation of intact inhibitor) from donor to acceptor enzyme [1]: observed
acylation exchange (recyclization and dissociation of intact inhibitor) from donor to acceptor enzyme (CTX-M-15): observed
acylation exchange (recyclization and dissociation of intact inhibitor) from donor to acceptor enzyme (TEM-1): observed
